The text below walks through data of patent US20240327429A1, “[1,3]Thiazolo[4,5-d]-pyrimidon-7-ones as inhibitors of NOX4” (Boehringer Ingelheim International GmbH, priority 2023, published 2024).

The target in one assay is T1, human NOX1 (hNOX1) (Homo sapiens, UniProt Q9Y5S8).
T1 construct: pLV-CMV-hNOX1-puro (NM_007052.5); host or cells: HEK293 (CLS GmbH), lentiviral transduction
T1 sequence (Q9Y5S8 1-564): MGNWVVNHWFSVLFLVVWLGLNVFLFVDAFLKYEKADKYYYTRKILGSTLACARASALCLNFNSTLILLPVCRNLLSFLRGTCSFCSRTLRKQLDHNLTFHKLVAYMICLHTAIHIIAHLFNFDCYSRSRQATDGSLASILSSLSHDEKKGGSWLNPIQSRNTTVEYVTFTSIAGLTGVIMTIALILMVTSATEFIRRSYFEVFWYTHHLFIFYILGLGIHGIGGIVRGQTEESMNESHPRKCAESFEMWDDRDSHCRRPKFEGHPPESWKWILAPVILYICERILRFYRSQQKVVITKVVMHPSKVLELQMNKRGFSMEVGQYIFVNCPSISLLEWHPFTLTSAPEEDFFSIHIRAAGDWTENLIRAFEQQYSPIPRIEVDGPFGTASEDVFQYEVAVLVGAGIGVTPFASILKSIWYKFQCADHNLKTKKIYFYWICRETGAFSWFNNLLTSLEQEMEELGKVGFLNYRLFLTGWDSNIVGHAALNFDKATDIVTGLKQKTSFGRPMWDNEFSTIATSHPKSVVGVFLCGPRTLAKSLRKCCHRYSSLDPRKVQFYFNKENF
T1 sequence (P13498 2-195 partner limits assumed): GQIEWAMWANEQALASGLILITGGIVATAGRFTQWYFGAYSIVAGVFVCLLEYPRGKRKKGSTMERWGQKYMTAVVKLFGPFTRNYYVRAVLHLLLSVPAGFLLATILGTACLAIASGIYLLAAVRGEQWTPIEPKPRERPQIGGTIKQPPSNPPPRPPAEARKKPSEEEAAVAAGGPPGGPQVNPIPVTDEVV
The experiment in a line: NOX1 inhibition assay (L-012), HEK293 cells stably overexpressing human NOX1. The assay is classed as cell-based. Conditions: HEK293-hNOX1, PMA stimulated. The text has this:
Plasmids are Purchased from Vectorbuilder. • for HEK-hNOX1 all necessary subunits are cloned accordingly: • pLV-CMV-hNOX1-puro (NM_007052.5) • pLV-CMV-hNOXO1-blas (NM_172168.3) • pLV-CMV-hp22phox-hygro (NM_000101.4) • pLV-CMV-hNOXA1-neo (NM_006647.2) • for HEK-hNOX3 • pLV-CMV-hNOX3-puro (NM_015718.3)
3rd generation lentiviral particles are produced in HEK293 suspension cells by transient transfection of three helper and expression plasmids. Crucial lentivirus supernatants are harvested, clarified by filtration and concentrated by precipitation. Lentivirus titers are determined in transducing units in (TU/mL) by transduction of HT1080 cells and colony forming assay. Parental HEK293 cells, purchased from CLS GmbH, are transduced with replication-incompetent 3rd generation lentiviral particles (MOI 2) and expanded for at least 2 weeks before cryopreservation of tested lots. During cultivation, medium is changed three times per week and cells are sub-cultured at least once per week. Selection antibiotics are added according to the plasmids (1 μg/ml puromycin, 1.5 μg/ml blasticidin, 200 μg/ml G418 and 100 μg/ml hygromycin).
Evaluation of the NOX4 inhibitors on NOX1 activity is assessed in HEK293 cells stably overexpressing human NOX1 (hNOX1).
Lastly, 8-amino-5-chloro-2,3-dihydro-7-phenyl-pyrido[3,4-d]pyridazine-1,4-dione sodium salt (L-012, CAS 143556-24-5) is added at 400 μM to all wells, and cells are incubated in an incubator for an additional 3 h. Afterwards luminescence is measured with a SpectraMax Paradigm Microplate Reader.

The target in another assay is T2, NOX2 (Homo sapiens, UniProt P04839).
T2 construct: endogenous in cells; host or cells: freshly isolated human blood-derived granulocytes
T2 sequence (P04839 2-570 limits assumed): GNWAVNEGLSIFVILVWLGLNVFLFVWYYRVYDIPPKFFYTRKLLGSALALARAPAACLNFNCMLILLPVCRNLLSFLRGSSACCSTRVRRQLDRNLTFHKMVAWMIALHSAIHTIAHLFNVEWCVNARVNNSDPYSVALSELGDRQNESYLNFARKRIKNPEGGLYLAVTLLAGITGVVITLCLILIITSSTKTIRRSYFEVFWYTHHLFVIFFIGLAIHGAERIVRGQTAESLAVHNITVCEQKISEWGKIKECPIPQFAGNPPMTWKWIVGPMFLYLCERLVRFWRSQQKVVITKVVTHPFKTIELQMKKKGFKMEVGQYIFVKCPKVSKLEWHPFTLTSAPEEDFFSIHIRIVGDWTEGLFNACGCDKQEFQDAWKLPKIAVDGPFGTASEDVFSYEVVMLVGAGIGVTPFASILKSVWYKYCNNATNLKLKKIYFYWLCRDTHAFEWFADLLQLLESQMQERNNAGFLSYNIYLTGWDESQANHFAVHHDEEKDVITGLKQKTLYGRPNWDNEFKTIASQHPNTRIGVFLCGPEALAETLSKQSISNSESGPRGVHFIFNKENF
T2 sequence (P13498 2-195 partner limits assumed): T1 sequence (P13498 2-195 partner limits assumed)
Nature of the assay: NOX2 inhibition assay (L-012), human blood-derived granulocytes. Format: cell-based. Conditions: fMLP/PMA stimulated. As to the method:
Evaluation of the NOX4 inhibitors on NOX2 activity is assessed in human blood-derived granulocytes.
Afterwards, freshly isolated granulocytes are added to the wells containing the compounds in assay buffer and incubated for 1 h at 37° C. Next, a solution of Nformylmethionine-leucyl-phenylalanine (fMLP; 730 nM), phorbol myristate acetate (PMA, 100 nM) (stimuli of ROS production) and L-012 (200 μM, ROS indicator) is added to the wells and the cells are incubated for additional 30 mins at 37° C. Afterwards luminescence is measured in a SpectraMax M5 microplate reader.

A value given as a limit tells only on which side of the number the result lay.

On to `O=c1c2scnc2nc(SCc2ccc(C(F)(F)F)cc2F)n1-c1ccc(O)nn1` [Example 65], for which the IC50 on human NOX1 (hNOX1) and against NOX2 was > 100 µM each time.

As for `O=c1c2scnc2nc(SCc2c(F)cc(F)cc2F)n1-c1ccc(O)cc1F` [Example 14], the IC50 against human NOX1 (hNOX1) came out at 2.3 µM; on NOX2, 13.4 µM.

Take `O=c1c2scnc2nc(SCc2c(F)cc(F)cc2F)n1-c1ccc(O)c(F)c1` [Example 11]: the IC50 is 0.9 µM against human NOX1 (hNOX1) and > 30 µM at NOX2.

For `O=c1c2scnc2nc(SCc2c(F)cc(F)cc2F)n1-c1ccc(O)nc1F` [Example 50, 6-(2-Fluoro-6-hydroxypyridin-3-yl)-5-((2,4,6-trifluorobenzyl)thio)thiazolo[4,5-d]-pyrimidin-7(6H)-one], the figures for the IC50 at human NOX1 (hNOX1) and at NOX2 were 27.6 µM and > 100 µM, respectively.

For the molecule `Cc1cc(Cl)ccc1CSc1nc2ncsc2c(=O)n1-c1cnc(O)c(F)c1` [Example 37], the IC50 is 18.8 µM against human NOX1 (hNOX1) and > 100 µM against NOX2.

Turning to `O=c1c2scnc2nc(SCc2ccc(Br)cc2F)n1-c1cnc(O)c(F)c1` [Example 34], the IC50 at human NOX1 (hNOX1) is 14.7 µM; against NOX2, > 100 µM.

Regarding `O=c1c2scnc2nc(SCc2c(F)cc(F)cc2F)n1-c1ccc(O)nc1` [Example 28], the IC50 against human NOX1 (hNOX1) was 27.1 µM; against NOX2, > 30 µM.

For `O=c1c2scnc2nc(SCc2ccc(Cl)cc2F)n1-c1ccc(O)nn1` [Example 61, 5-((4-Chloro-2-fluorobenzyl)thio)-6-(6-hydroxypyridazin-3-yl)thiazolo[4,5-d]pyrimidin-7(6H)-one], the IC50 at human NOX1 (hNOX1) and against NOX2 was > 100 µM throughout.

Consider `O=c1c2scnc2nc(SCc2ccc(Cl)cc2)n1-c1cnc(O)c(F)c1` [Example 33], for which the IC50 against human NOX1 (hNOX1) is 35.5 µM; at NOX2 it was > 100 µM.

Regarding `O=c1c2scnc2nc(SCc2ccc(Cl)cc2F)n1-c1cnc(O)nc1` [Example 53, 5-((4-Chloro-2-fluorobenzyl)thio)-6-(2-hydroxypyrimidin-5-yl)thiazolo[4,5-d]pyrimidin-7(6H)-one], the IC50 on human NOX1 (hNOX1) and against NOX2 was > 100 µM each time.

In the case of `O=c1c2scnc2nc(SCc2ccc(Cl)cc2Cl)n1-c1cnc(O)c(F)c1` [Example 39], the IC50 against human NOX1 (hNOX1) was 24.5 µM; against NOX2 it was > 100 µM.

On to `O=c1c2scnc2nc(SCc2c(F)cc(F)cc2F)n1-c1cnc(O)c(F)c1F` [Example 52, 6-(4,5-Difluoro-6-hydroxypyridin-3-yl)-5-((2,4,6-trifluorobenzyl)thio)thiazolo[4,5-d]-pyrimidin-7(6H)-one], for which the IC50 on human NOX1 (hNOX1) was 21.2 µM; against NOX2, > 100 µM.

As to `O=c1c2scnc2nc(SCc2c(F)cc(F)cc2F)n1-c1cc(F)c(O)cc1F` [Example 10, 6-(2,5-Difluoro-4-hydroxyphenyl)-5-((2,4,6-trifluorobenzyl)thio)thiazolo[4,5-d]pyrimidin-7(6H)-one], the results for the IC50 at human NOX1 (hNOX1) and against NOX2 were 0.5 µM and > 30 µM, respectively.

`Cc1cc(Cl)ccc1CSc1nc2ncsc2c(=O)n1-c1ccc(O)nn1` [Example 62]: the IC50 against human NOX1 (hNOX1) and against NOX2 was > 100 µM each time.

For `O=c1c2scnc2nc(SCc2ccc(C(F)(F)F)cc2)n1-c1ccc(O)nn1` [Example 66], the IC50 against human NOX1 (hNOX1) and against NOX2 was > 100 µM each time.

Regarding `Cc1cc(Cl)ccc1CSc1nc2ncsc2c(=O)n1-c1ccc(O)nc1` [Example 23], the values for the IC50 against human NOX1 (hNOX1) and at NOX2 were 48.1 µM and > 100 µM, respectively.

As to `O=c1c2scnc2nc(SCc2ccc(F)cc2)n1-c1ccc(O)nc1` [Example 30], the IC50 on human NOX1 (hNOX1) is 37.8 µM; at NOX2, > 30 µM.

For the molecule `O=c1c2scnc2nc(SCc2c(F)cc(F)cc2F)n1-c1cnc(O)cn1` [Example 69, 6-(5-Hydroxypyrazin-2-yl)-5-((2,4,6-trifluorobenzyl)thio)thiazolo[4,5-d]pyrimidin-7(6H)-one], the IC50 against human NOX1 (hNOX1) and against NOX2 was > 100 µM in each case.

For `O=c1c2scnc2nc(SCc2ccc(Cl)cc2)n1-c1cc(F)c(O)c(F)c1` [Example 5], the results for the IC50 on human NOX1 (hNOX1) and on NOX2 were 0.3 µM and > 100 µM, respectively.

Take `O=c1c2scnc2nc(SCc2ccc(C(F)(F)F)cc2)n1-c1cnc(O)nc1` [Example 60]: the IC50 at human NOX1 (hNOX1) and against NOX2 was > 100 µM each time.

Regarding `Cc1cc(F)cc(C)c1CSc1nc2ncsc2c(=O)n1-c1cnc(O)c(F)c1` [Example 43], the IC50 against human NOX1 (hNOX1) and against NOX2 was > 100 µM in each case.

In the case of `O=c1c2scnc2nc(SCc2ccc(C(F)(F)F)cc2Cl)n1-c1cnc(O)c(F)c1` [Example 46], the IC50 against human NOX1 (hNOX1) was 48.4 µM; against NOX2, > 100 µM.

With `Cc1cc(F)ccc1CSc1nc2ncsc2c(=O)n1-c1cc(F)c(O)c(F)c1` [Example 9], the IC50 on human NOX1 (hNOX1) is 1.9 µM; against NOX2, > 100 µM.

For `O=c1c2scnc2nc(SCc2c(F)cc(F)cc2F)n1-c1cnc(O)nc1` [Example 59], the IC50 was 21 µM against human NOX1 (hNOX1) and > 100 µM at NOX2.

For the molecule `O=c1c2scnc2nc(SCc2c(F)cc(F)cc2F)n1-c1cnc(O)cc1F` [Example 49, 6-(4-Fluoro-6-hydroxypyridin-3-yl)-5-((2,4,6-trifluorobenzyl)thio)thiazolo[4,5-d]pyrimidin-7(6H)-one], the IC50 at human NOX1 (hNOX1) and on NOX2 was > 100 µM throughout.

Regarding `O=c1c2scnc2nc(SCc2ccc(Cl)cc2F)n1-c1cnc(O)c(F)c1` [Example 35], the IC50 against human NOX1 (hNOX1) and against NOX2 was > 100 µM each time.

Turning to `O=c1c2scnc2nc(SCc2c(F)cc(F)cc2F)n1-c1ccc(O)c(F)c1F` [Example 12], the IC50 was 2.9 µM against human NOX1 (hNOX1) and > 30 µM on NOX2.

On to `Cc1cc(Cl)ccc1CSc1nc2ncsc2c(=O)n1-c1cc(F)c(O)c(F)c1` [Example 3], for which the IC50 at human NOX1 (hNOX1) is 1.7 µM; against NOX2 it was > 100 µM.

As for `O=c1c2scnc2nc(SCc2c(F)cc(F)cc2F)n1-c1cnc(O)c(Cl)c1` [Example 48, 6-(5-Chloro-6-hydroxypyridin-3-yl)-5-((2,4,6-trifluorobenzyl)thio)thiazolo[4,5-d]pyri-midin-7(6H)-one], the IC50 against human NOX1 (hNOX1) was 36.7 µM; on NOX2 it was > 100 µM.

As for `O=c1c2scnc2nc(SCc2c(F)cc(F)cc2F)n1-c1cnc(O)c(F)c1` [Example 31, 6-(5-Fluoro-6-hydroxypyridin-3-yl)-5-((2,4,6-trifluorobenzyl)thio)thiazolo[4,5-d]-pyrimidin-7(6H)-one], the IC50 at human NOX1 (hNOX1) turned out to be 22.9 µM; on NOX2 it was 10.5 µM.
